According to patent publication US20090156668A1, “Ginkgolide Compounds, Compositions, And Extracts, And Uses Thereof” (priority 2004, published 2009):
Like-named read-outs stand apart in the source and are kept apart here.

Assays:
[1] = biological target: platelet activating factor (Homo sapiens, UniProt P25105); conditions: analogs obtained as racemates, cited from earlier work
[2] = test system: beta-amyloid (1-42)-induced inhibition of long-term potentiation in the CA1 region of hippocampal slices; type: cell-based, mice
[3] = read-out: anti-PAF IC50; analogs obtained as racemates; cited from earlier work
[4] = test system: rat hippocampal neuron cultures; experiment: neuroprotection assay: beta amyloid-induced neuronal cell death, viable cells by cell nuclei counting; conditions: for number of viable cells (control = 100%): ginkgolide 1 μM + oligomeric amyloid beta, mean±SEM of 3 experiments

platelet activating factor, sequence (P25105 whole entry): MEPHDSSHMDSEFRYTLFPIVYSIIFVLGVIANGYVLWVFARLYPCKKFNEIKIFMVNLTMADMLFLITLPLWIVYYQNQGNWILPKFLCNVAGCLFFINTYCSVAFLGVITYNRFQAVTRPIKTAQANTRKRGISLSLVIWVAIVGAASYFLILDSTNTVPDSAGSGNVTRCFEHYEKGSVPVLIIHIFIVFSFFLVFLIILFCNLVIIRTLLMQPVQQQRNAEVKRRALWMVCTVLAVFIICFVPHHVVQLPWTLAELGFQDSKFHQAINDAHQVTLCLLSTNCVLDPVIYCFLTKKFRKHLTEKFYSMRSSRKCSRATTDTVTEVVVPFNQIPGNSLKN

Row | Molecule | rescue of LTP (L-LTP) impairment in slices treated with Aβ [2] | number of viable cells (control = 100%) ([4]; 24 h) [%] | further results
1 | CC1C(=O)OC2CC34C5CC(C(C)(C)C)C36C(=O)C(=O)OC6OC4(C(=O)O5)C21O (centres unmarked) [10-keto analog] | – | – | IC50 ([1]; read-out: anti-PAF IC50): 3900 nM
2 | CC(C)(C)[C@]1(O)CC2OC(=O)CC23C(=O)OC2OC(=O)[C@H](O)C231 (some centres unmarked) [BB, bilobalide] | does not rescue L-LTP impairment | – | –
3 | C[C@@H]1C(=O)O[C@H]2CC34C5C[C@@H](C(C)(C)C)C36C(OC(=O)[C@@H]6O)OC4(C(=O)O5)[C@]21O (some centres unmarked) [Ginkgolide A] | rescued the LTP to the same values recorded in control untreated slices | 50.5±5.7 | IC50 [3]: 1900 nM; consistently able to prevent amyloid beta-induced cell death ([4]; ginkgolide 1 μM, 24 h): not
4 | C[C@@H]1C(=O)O[C@H]2CC34C5OC(=O)C3(OC3OC(=O)[C@H](O)C34[C@H](C(C)(C)C)[C@H]5O)[C@]21O (some centres unmarked) [Ginkgolide J] | rescued the LTP to the same values recorded in control untreated slices | 70.7±1.4 | consistently able to prevent amyloid beta-induced cell death [4]: consistently able to prevent cell death; more cells than the other treatments [4]: approximately 40%; prevention of amyloid beta toxicity [4]: appeared to completely prevent amyloid beta toxicity
5 | Ginkgolide B [GB] | does not rescue L-LTP impairment | – | IC50 ([1]; read-out: anti-PAF activity IC50): 600 nM
6 | Ginkgolide C [GC] | does not rescue L-LTP impairment | – | –
